Six molecules from patent US20220323406A1, “METHODS AND COMPOSITIONS FOR DIFFERENTIATING STEM CELLS” (Massachusetts Institute of Technology, priority 2019, published 2022) can be followed below.

What all share (conditions): primary screen
Experiment [1] relates to ENR+CD organoids (ISC to Paneth cell differentiation). The experiment is described as follows: Primary screen: basal (non-stimulated) lysozyme secretion LYZ.NS, 2.5-D 384-well ENR+CD organoid differentiation. The class given is cell-based, mouse. From the text:
(§1) High-throughput screening.

Experiment [2] has the same test system. The experiment is described as follows: Primary screen: CCh-stimulated lysozyme secretion LYZ.S, 2.5-D 384-well ENR+CD organoid differentiation. It is filed as cell-based, mouse.
Text: as §1

Experiment [3] concerns ENR+CD organoids. Nature of the experiment: Primary screen: ATP (CellTiter-Glo 3D, CTG) cell number/viability, 2.5-D 384-well ENR+CD organoids.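 Also: compounds given at plating and again on day 3 over a 6-day differentiation from ENR+CV stem-cell-enriched precursors, ATP measured on day 6, plate median as control.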 On the technique in general: Cellular ATP, detected with luciferase, serves as a proxy for viable cell number.

Take `Cc1cc(-c2ccc(CC(=O)Nc3ccc(-c4cccnc4)cc3)cc2)ccn1` [Wnt-C59 (C59)]: the Dose.FC.LYZ.NS is on record as −0.163 log2 fold change in experiment [1] (dose 0.08 uM), −0.182 log2 fold change in experiment [1] (dose 0.40 uM), −0.198 log2 fold change in experiment [1] (dose 2.00 uM) and −0.191 log2 fold change in experiment [1] (dose 10.00 uM). Also, the “Z.LYZ.NS (standard z score)” value in experiment [1] (dose 0.08 uM) was −1.424; in experiment [1] (dose 0.40 uM) it was −1.588; in experiment [1] (dose 2.00 uM), −1.724; in experiment [1] (dose 10.00 uM), −1.666. For the same molecule, the Dose.FC.LYZ.S is −0.242 log2 fold change in experiment [2] (dose 0.08 uM), −0.281 log2 fold change in experiment [2] (dose 0.40 uM), −0.313 log2 fold change in experiment [2] (dose 2.00 uM) and −0.301 log2 fold change in experiment [2] (dose 10.00 uM). In addition, the Dose.FC.CTG in experiment [3] (dose 0.08 uM) was −0.572 log2 fold change; in experiment [3] (dose 0.40 uM) it was −0.611 log2 fold change; in experiment [3] (dose 2.00 uM), −0.627 log2 fold change; in experiment [3] (dose 10.00 uM) it was −0.613 log2 fold change. Besides, the “Z.CTG (standard z score)” value was −1.366 in experiment [3] (dose 0.08 uM), −1.461 in experiment [3] (dose 0.40 uM), −1.498 in experiment [3] (dose 2.00 uM) and −1.465 in experiment [3] (dose 10.00 uM).
With `Oc1nc(-c2ccc(C(F)(F)F)cc2)nc2c1CSCC2` [XAV-939], the Dose.FC.LYZ.NS is recorded as 0.058 log2 fold change in experiment [1] (dose 0.08 uM), 0.020 log2 fold change in experiment [1] (dose 0.40 uM), −0.044 log2 fold change in experiment [1] (dose 2.00 uM) and −0.131 log2 fold change in experiment [1] (dose 10.00 uM). In addition, the “Z.LYZ.NS (standard z score)” value is reported as 0.505 in experiment [1] (dose 0.08 uM), 0.177 in experiment [1] (dose 0.40 uM), −0.386 in experiment [1] (dose 2.00 uM) and −1.142 in experiment [1] (dose 10.00 uM). For the same molecule, the Dose.FC.LYZ.S is recorded as 0.074 log2 fold change in experiment [2] (dose 0.08 uM), 0.085 log2 fold change in experiment [2] (dose 0.40 uM), −0.068 log2 fold change in experiment [2] (dose 2.00 uM) and −0.231 log2 fold change in experiment [2] (dose 10.00 uM). The Dose.FC.CTG in experiment [3] (dose 0.08 uM) is listed as −0.332 log2 fold change; in experiment [3] (dose 0.40 uM), −0.027 log2 fold change; in experiment [3] (dose 2.00 uM) it was −0.355 log2 fold change; in experiment [3] (dose 10.00 uM) it was −0.899 log2 fold change.
With `CC(C)OC(=O)C1=CN(C(=O)c2ccc(F)c(F)c2)CC(C)(C)c2c1[nH]c1ccccc21` [XL335], the Dose.FC.LYZ.NS is on record as 0.175 log2 fold change in experiment [1] (dose 0.08 uM), −0.082 log2 fold change in experiment [1] (dose 0.40 uM), −0.072 log2 fold change in experiment [1] (dose 2.00 uM) and −0.135 log2 fold change in experiment [1] (dose 10.00 uM). Moreover, the “Z.LYZ.NS (standard z score)” value in experiment [1] (dose 0.08 uM) is given as 1.523; in experiment [1] (dose 0.40 uM) it was −0.711; in experiment [1] (dose 2.00 uM), −0.625; in experiment [1] (dose 10.00 uM), −1.176. For the same molecule, the Dose.FC.LYZ.S in experiment [2] (dose 0.08 uM) is reported as 0.093 log2 fold change; in experiment [2] (dose 0.40 uM) it was −0.109 log2 fold change; in experiment [2] (dose 2.00 uM) it was 0.045 log2 fold change; in experiment [2] (dose 10.00 uM) it was −0.180 log2 fold change. In addition, the Dose.FC.CTG is 0.124 log2 fold change in experiment [3] (dose 0.08 uM), −0.258 log2 fold change in experiment [3] (dose 0.40 uM), −0.259 log2 fold change in experiment [3] (dose 2.00 uM) and −0.156 log2 fold change in experiment [3] (dose 10.00 uM).
In the case of `COCC[n+]1c2c(n(Cc3cnccn3)c1C)C(=O)c1ccccc1C2=O.[Br-]` [YM155 (Sepantronium Bromide)], the Dose.FC.LYZ.NS in experiment [1] (dose 0.08 uM) is on record as 0.114 log2 fold change; in experiment [1] (dose 0.40 uM), −0.031 log2 fold change; in experiment [1] (dose 2.00 uM), −0.082 log2 fold change; in experiment [1] (dose 10.00 uM), −0.096 log2 fold change. Also, the “Z.LYZ.NS (standard z score)” value is 0.995 in experiment [1] (dose 0.08 uM), −0.266 in experiment [1] (dose 0.40 uM), −0.714 in experiment [1] (dose 2.00 uM) and −0.839 in experiment [1] (dose 10.00 uM). The Dose.FC.LYZ.S is recorded as 0.172 log2 fold change in experiment [2] (dose 0.08 uM), −0.039 log2 fold change in experiment [2] (dose 0.40 uM), −0.137 log2 fold change in experiment [2] (dose 2.00 uM) and −0.210 log2 fold change in experiment [2] (dose 10.00 uM). Moreover, the Dose.FC.CTG in experiment [3] (dose 0.08 uM) is reported as 0.222 log2 fold change; in experiment [3] (dose 0.40 uM), −0.083 log2 fold change; in experiment [3] (dose 2.00 uM), −0.460 log2 fold change; in experiment [3] (dose 10.00 uM) it was −0.970 log2 fold change. In addition, the “Z.CTG (standard z score)” value is reported as 0.531 in experiment [3] (dose 0.08 uM), −0.198 in experiment [3] (dose 0.40 uM), −1.100 in experiment [3] (dose 2.00 uM) and −2.316 in experiment [3] (dose 10.00 uM).
As for `C[C@H](NC(=O)Cc1cc(F)cc(F)c1)C(=O)N[C@@H]1C(=O)N(C)c2ccccc2-c2ccccc21` [YO-01027], the Dose.FC.LYZ.NS in experiment [1] (dose 0.08 uM) is given as 0.051 log2 fold change; in experiment [1] (dose 0.40 uM), 0.085 log2 fold change; in experiment [1] (dose 2.00 uM) it was −0.080 log2 fold change; in experiment [1] (dose 10.00 uM), −0.157 log2 fold change. Moreover, the “Z.LYZ.NS (standard z score)” value in experiment [1] (dose 0.08 uM) is 0.443; in experiment [1] (dose 0.40 uM), 0.739; in experiment [1] (dose 2.00 uM), −0.699; in experiment [1] (dose 10.00 uM), −1.369. Also, the Dose.FC.LYZ.S was 0.105 log2 fold change in experiment [2] (dose 0.08 uM), −0.058 log2 fold change in experiment [2] (dose 0.40 uM), −0.020 log2 fold change in experiment [2] (dose 2.00 uM) and −0.184 log2 fold change in experiment [2] (dose 10.00 uM). Also, the Dose.FC.CTG in experiment [3] (dose 0.08 uM) is 0.221 log2 fold change; in experiment [3] (dose 0.40 uM), −0.475 log2 fold change; in experiment [3] (dose 2.00 uM), −0.571 log2 fold change; in experiment [3] (dose 10.00 uM), −1.032 log2 fold change. For the same molecule, the “Z.CTG (standard z score)” value is recorded as 0.528 in experiment [3] (dose 0.08 uM), −1.135 in experiment [3] (dose 0.40 uM), −1.363 in experiment [3] (dose 2.00 uM) and −2.464 in experiment [3] (dose 10.00 uM).
On to `Cc1cc(C)nc(NS(=O)(=O)c2ccc(NC(=S)NC(=O)COc3ccc(Br)cc3Cl)cc2)n1` [ZCL278], for which the Dose.FC.LYZ.NS is recorded as −0.084 log2 fold change in experiment [1] (dose 0.08 uM), −0.037 log2 fold change in experiment [1] (dose 0.40 uM), 0.025 log2 fold change in experiment [1] (dose 2.00 uM) and 0.015 log2 fold change in experiment [1] (dose 10.00 uM). The “Z.LYZ.NS (standard z score)” value is −0.729 in experiment [1] (dose 0.08 uM), −0.325 in experiment [1] (dose 0.40 uM), 0.218 in experiment [1] (dose 2.00 uM) and 0.130 in experiment [1] (dose 10.00 uM). Further, the Dose.FC.LYZ.S is on record as −0.107 log2 fold change in experiment [2] (dose 0.08 uM), 0.077 log2 fold change in experiment [2] (dose 0.40 uM), −0.079 log2 fold change in experiment [2] (dose 2.00 uM) and −0.080 log2 fold change in experiment [2] (dose 10.00 uM). The Dose.FC.CTG in experiment [3] (dose 0.08 uM) is −0.964 log2 fold change; in experiment [3] (dose 0.40 uM), 0.018 log2 fold change; in experiment [3] (dose 2.00 uM) it was −0.228 log2 fold change; in experiment [3] (dose 10.00 uM), −0.104 log2 fold change. The “Z.CTG (standard z score)” value is recorded as −2.303 in experiment [3] (dose 0.08 uM), 0.044 in experiment [3] (dose 0.40 uM), −0.545 in experiment [3] (dose 2.00 uM) and −0.247 in experiment [3] (dose 10.00 uM).
